This is an account of results in patent publication US20220411471A1, “CELL-PERMEABLE CYCLIC PEPTIDES AND USES THEREOF” (Unnatural Products Inc., priority 2019, published 2022).

Non-standard residues stand in square brackets, D forms with d. Residues, ends and D or L forms follow the SMILES beside them. Phe(4-Cl) = N[C@@H](Cc1ccc(Cl)cc1)C(=O)O; Phe(4-F) = N[C@@H](Cc1ccc(F)cc1)C(=O)O; 3Pal = N[C@@H](Cc1cccnc1)C(=O)O; 2Thi = N[C@@H](Cc1cccs1)C(=O)O; NMeL = CN[C@@H](CC(C)C)C(=O)O; dNMeV = CN[C@@H](C(=O)O)C(C)C; NMeNle = CCCC[C@H](NC)C(=O)O; Tle = CC(C)(C)[C@H](N)C(=O)O; NMeV = CN[C@H](C(=O)O)C(C)C; dPip = O=C(O)[C@H]1CCCCN1; NMeA = CN[C@@H](C)C(=O)O; Nme = COCCNCC(=O)O

In the experiment the target is T1, Human MDM2 (HDM2) 1-116 (Homo sapiens, UniProt Q00987).
T1 construct: Human MDM2 (HDM2) 1-116
T1 sequence (Q00987 1-116): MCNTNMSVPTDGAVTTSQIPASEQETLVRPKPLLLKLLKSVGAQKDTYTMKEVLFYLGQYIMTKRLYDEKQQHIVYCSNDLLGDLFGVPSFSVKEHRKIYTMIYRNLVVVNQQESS
The experiment can be described thus: Fluorescence polarization assay, MDM2/p53 (Table 3). It is filed as binding. As for the experimental part: (§1) Human MDM2 (HDM2) 1-116 (20 μL) and FITC-labeled p53 (18-26), 50 nM and 10 nM respectively in 10 mM Tris, 50 mM NaCl, 0.01% Tween20, and 1 mM DTT at pH 7.4 were dispensed into an opaque, black, 384 well plate. Compounds dissolved in DMSO were pin transferred (˜200 nL) to the 384 well plate containing the MDM2/p53 solution. After incubation for 10 minutes, the fluorescence polarization was read on a Molecular Devices SpectraMax plate reader equipped with a Fluorescein FP cartridge. In addition to probe alone (positive control) and probe/MDM2 (negative control), a titration of linear p53(18-26) was included on every plate as an additional control. IC50 values were fit using either Prism or Collaborative Drug Discovery.
as §1, with “and FAM-labeled RFMDYWEGL-NH2,” for “and FITC-labeled p53 (18-26),”, “NaCl, 0.010%” for “NaCl, 0.01%”, “transferred (˜100-200” for “transferred (˜200”, “for 60” for “for 10”

Broadly, the IC50 is the midpoint of a concentration-inhibition curve.

Take `CC(C)C[C@H]1C(=O)N[C@@H](CC(=O)O)C(=O)N[C@@H](Cc2ccc(F)cc2)C(=O)N[C@@H](CCC(=O)O)C(=O)N[C@@H](Cc2ccc(Cl)cc2)C(=O)N2CCC[C@@H]2C(=O)N2CCC[C@H]2C(=O)N[C@@H](Cc2ccccc2)C(=O)N[C@@H](CCC(=O)O)C(=O)N[C@@H](Cc2c[nH]c3ccccc23)C(=O)N1C` [Compound 4, [H]OC(=O)CC[C@@H]1NC(=O)[C@H](Cc2ccccc2)NC(=O)[C@@H]2CCCN2C(=O)[C@H]2CCCN2C(=O)[C@H](Cc2ccc(Cl)cc2)NC(=O)[C@H](CCC(=O)O[H])NC(=O)[C@H](Cc2ccc(F)cc2)NC(=O)[C@H](CC(=O)O[H])NC(=O)[C@H](CC(C)C)N(C)C(=O)[C@H](Cc2cn([H])c3ccccc23)NC1=O] (cyclo(FEW[NMeL]D[Phe(4-F)]E[Phe(4-Cl)][dP]P)): the IC50 was less than 1000 nM.

On to `COCCN1CC(=O)N(C)[C@@H](C)C(=O)N[C@@H](Cc2ccc(F)cc2)C(=O)N[C@@H](C(C)(C)C)C(=O)N[C@@H](Cc2ccc(Cl)cc2)C(=O)N2CCCC[C@@H]2C(=O)N2CCC[C@H]2C(=O)N[C@@H](Cc2ccccc2)C(=O)N[C@@H](C(C)(C)C)C(=O)N[C@@H](Cc2cccnc2)C1=O` [Compound 29, COCCN1CC(=O)N(C)[C@@H](C)C(=O)N[C@@H](Cc2ccc(F)cc2)C(=O)N[C@H](C(=O)N[C@@H](Cc2ccc(Cl)cc2)C(=O)N2CCCC[C@@H]2C(=O)N2CCC[C@H]2C(=O)N[C@@H](Cc2ccccc2)C(=O)N[C@H](C(=O)N[C@@H](Cc2cccnc2)C1=O)C(C)(C)C)C(C)(C)C] (cyclo([3Pal][Nme][NMeA][Phe(4-F)][Tle][Phe(4-Cl)][dPip]PF[Tle])), for which the IC50 was less than 1000 nM. Compound `CC(C)[C@H]1C(=O)N[C@@H](Cc2cccnc2)C(=O)N2CCC[C@@H]2C(=O)N(C)[C@@H](C)C(=O)N[C@@H](Cc2ccc(F)cc2)C(=O)N[C@@H](C(C)(C)C)C(=O)N[C@@H](Cc2ccc(Cl)cc2)C(=O)N2CCCC[C@@H]2C(=O)N2CCC[C@H]2C(=O)N[C@@H](Cc2ccccc2)C(=O)N1C` [Compound 27, CC(C)[C@@H]1N(C)C(=O)[C@H](Cc2ccccc2)NC(=O)[C@@H]2CCCN2C(=O)[C@H]2CCCCN2C(=O)[C@H](Cc2ccc(Cl)cc2)NC(=O)[C@@H](NC(=O)[C@H](Cc2ccc(F)cc2)NC(=O)[C@H](C)N(C)C(=O)[C@H]2CCCN2C(=O)[C@H](Cc2cccnc2)NC1=O)C(C)(C)C] (cyclo([3Pal][dP][NMeA][Phe(4-F)][Tle][Phe(4-Cl)][dPip]PF[NMeV])) had an IC50 of 1000 to 2500 nM. The compound `COCCN1CC(=O)N(C)[C@@H](C)C(=O)N[C@@H](Cc2ccc(F)cc2)C(=O)N(C)[C@@H](C)C(=O)N[C@@H](Cc2ccc(Cl)cc2)C(=O)N(C)[C@H](C(C)C)C(=O)N2CCC[C@H]2C(=O)N[C@@H](Cc2ccccc2)C(=O)N[C@@H](C(C)(C)C)C(=O)N[C@@H](Cc2ccc(O)cc2)C1=O` [Compound 14, [H]Oc1ccc(C[C@@H]2NC(=O)[C@@H](NC(=O)[C@H](Cc3ccccc3)NC(=O)[C@@H]3CCCN3C(=O)[C@@H](C(C)C)N(C)C(=O)[C@H](Cc3ccc(Cl)cc3)NC(=O)[C@H](C)N(C)C(=O)[C@H](Cc3ccc(F)cc3)NC(=O)[C@H](C)N(C)C(=O)CN(CCOC)C2=O)C(C)(C)C)cc1] (cyclo(F[Tle]Y[Nme][NMeA][Phe(4-F)][NMeA][Phe(4-Cl)][dNMeV]P)) registered an IC50 of 1000 to 2500 nM. `CC(C)C[C@H]1C(=O)N[C@@H](CC(=O)O)C(=O)N[C@@H](Cc2c[nH]c3ccccc23)C(=O)N[C@@H](CCC(=O)O)C(=O)N[C@@H](Cc2ccccc2)C(=O)N2CCC[C@@H]2C(=O)N2CCC[C@H]2C(=O)N[C@@H](Cc2ccc(F)cc2)C(=O)N[C@@H](CCC(=O)O)C(=O)N[C@@H](Cc2ccc(Cl)cc2)C(=O)N1C` [Compound 6, [H]OC(=O)CC[C@@H]1NC(=O)[C@H](Cc2cn([H])c3ccccc23)NC(=O)[C@H](CC(=O)O[H])NC(=O)[C@H](CC(C)C)N(C)C(=O)[C@H](Cc2ccc(Cl)cc2)NC(=O)[C@H](CCC(=O)O[H])NC(=O)[C@H](Cc2ccc(F)cc2)NC(=O)[C@@H]2CCCN2C(=O)[C@H]2CCCN2C(=O)[C@H](Cc2ccccc2)NC1=O] (cyclo([Phe(4-F)]E[Phe(4-Cl)][NMeL]DWEF[dP]P)) came in with an IC50 of less than 1000 nM.

`C[C@H]1C(=O)N[C@@H](Cc2ccc(F)cc2)C(=O)N[C@@H](CCC(=O)O)C(=O)N[C@@H](Cc2ccccc2)C(=O)N2CCCC[C@@H]2C(=O)N2CCC[C@H]2C(=O)N[C@@H](Cc2ccccc2)C(=O)N[C@@H](CCC(=O)O)C(=O)N[C@@H](Cc2c[nH]c3ccccc23)C(=O)N2CCC[C@@H]2C(=O)N1C` [Compound 9, [H]OC(=O)CC[C@@H]1NC(=O)[C@H](Cc2ccccc2)NC(=O)[C@@H]2CCCN2C(=O)[C@H]2CCCCN2C(=O)[C@H](Cc2ccccc2)NC(=O)[C@H](CCC(=O)O[H])NC(=O)[C@H](Cc2ccc(F)cc2)NC(=O)[C@H](C)N(C)C(=O)[C@H]2CCCN2C(=O)[C@H](Cc2cn([H])c3ccccc23)NC1=O] (cyclo(EF[dPip]PFEW[dP][NMeA][Phe(4-F)])): the IC50 is less than 1000 nM.

Compound `CCCC[C@H]1C(=O)N[C@@H](Cc2ccccc2)C(=O)N2CCC[C@@H]2C(=O)N2CCC[C@H]2C(=O)N[C@@H](Cc2ccccc2)C(=O)N(C)[C@@H](CCCC)C(=O)N[C@@H](Cc2c[nH]c3ccccc23)C(=O)N(C)[C@@H](CC(C)C)C(=O)N[C@@H](CC(=O)O)C(=O)N[C@@H](Cc2c[nH]c3ccccc23)C(=O)N1C` [Compound 7, [H]OC(=O)C[C@@H]1NC(=O)[C@H](CC(C)C)N(C)C(=O)[C@H](Cc2cn([H])c3ccccc23)NC(=O)[C@H](CCCC)N(C)C(=O)[C@H](Cc2ccccc2)NC(=O)[C@@H]2CCCN2C(=O)[C@H]2CCCN2C(=O)[C@H](Cc2ccccc2)NC(=O)[C@H](CCCC)N(C)C(=O)[C@H](Cc2cn([H])c3ccccc23)NC1=O] (cyclo(F[NMeNle]W[NMeL]DW[NMeNle]F[dP]P)) came in with an IC50 of no less than 5000 nM. Compound `C[C@H]1C(=O)N[C@@H](Cc2ccc(Cl)cc2)C(=O)N2CCCC[C@@H]2C(=O)N2CCC[C@H]2C(=O)N[C@@H](Cc2cccnc2)C(=O)N[C@@H](CCC(=O)O)C(=O)N[C@@H](Cc2ccc(O)cc2)C(=O)N2CCC[C@@H]2C(=O)N(C)[C@@H](C)C(=O)N[C@@H](Cc2ccc(F)cc2)C(=O)N1C` [Compound 16, [H]OC(=O)CC[C@@H]1NC(=O)[C@H](Cc2cccnc2)NC(=O)[C@@H]2CCCN2C(=O)[C@H]2CCCCN2C(=O)[C@H](Cc2ccc(Cl)cc2)NC(=O)[C@H](C)N(C)C(=O)[C@H](Cc2ccc(F)cc2)NC(=O)[C@H](C)N(C)C(=O)[C@H]2CCCN2C(=O)[C@H](Cc2ccc(O[H])cc2)NC1=O] (cyclo([3Pal]EY[dP][NMeA][Phe(4-F)][NMeA][Phe(4-Cl)][dPip]P)) showed an IC50 of less than 1000 nM. In turn, `COCCN1CC(=O)N(C)[C@@H](C)C(=O)N[C@@H](Cc2ccc(F)cc2)C(=O)N(C)[C@@H](C)C(=O)N[C@@H](Cc2ccc(Cl)cc2)C(=O)N2CCCC[C@@H]2C(=O)N2CCC[C@H]2C(=O)N[C@@H](Cc2ccccc2)C(=O)N[C@@H](C(C)(C)C)C(=O)N[C@@H](Cc2cccnc2)C1=O` [Compound 21, COCCN1CC(=O)N(C)[C@@H](C)C(=O)N[C@@H](Cc2ccc(F)cc2)C(=O)N(C)[C@@H](C)C(=O)N[C@@H](Cc2ccc(Cl)cc2)C(=O)N2CCCC[C@@H]2C(=O)N2CCC[C@H]2C(=O)N[C@@H](Cc2ccccc2)C(=O)N[C@H](C(=O)N[C@@H](Cc2cccnc2)C1=O)C(C)(C)C] (cyclo([3Pal][Nme][NMeA][Phe(4-F)][NMeA][Phe(4-Cl)][dPip]PF[Tle])) yielded an IC50 of 1000 to 2500 nM. The same measure for `COCCN1CC(=O)N[C@@H](Cc2ccc(Cl)cc2)C(=O)N2CCCC[C@@H]2C(=O)N2CCC[C@H]2C(=O)N[C@@H](Cc2cccs2)C(=O)N[C@@H](C(C)(C)C)C(=O)N[C@@H](Cc2cccnc2)C(=O)N2CCC[C@@H]2C(=O)N(C)[C@@H](C)C(=O)N[C@@H](Cc2ccc(F)cc2)C1=O` [Compound 25, COCCN1CC(=O)N[C@@H](Cc2ccc(Cl)cc2)C(=O)N2CCCC[C@@H]2C(=O)N2CCC[C@H]2C(=O)N[C@@H](Cc2cccs2)C(=O)N[C@H](C(=O)N[C@@H](Cc2cccnc2)C(=O)N2CCC[C@@H]2C(=O)N(C)[C@@H](C)C(=O)N[C@@H](Cc2ccc(F)cc2)C1=O)C(C)(C)C] (cyclo([2Thi][Tle][3Pal][dP][NMeA][Phe(4-F)][Nme][Phe(4-Cl)][dPip]P)): less than 1000 nM; for `C[C@H]1C(=O)N[C@@H](Cc2ccc(Cl)cc2)C(=O)N2CCCC[C@@H]2C(=O)N2CCC[C@H]2C(=O)N[C@@H](Cc2ccccc2)C(=O)N[C@@H](C(C)(C)C)C(=O)N[C@@H](Cc2cccnc2)C(=O)N2CCCC[C@@H]2C(=O)N(C)[C@@H](C)C(=O)N[C@@H](Cc2ccc(F)cc2)C(=O)N1C` [Compound 28, C[C@@H]1N(C)C(=O)[C@H]2CCCCN2C(=O)[C@H](Cc2cccnc2)NC(=O)[C@@H](NC(=O)[C@H](Cc2ccccc2)NC(=O)[C@@H]2CCCN2C(=O)[C@H]2CCCCN2C(=O)[C@H](Cc2ccc(Cl)cc2)NC(=O)[C@H](C)N(C)C(=O)[C@H](Cc2ccc(F)cc2)NC1=O)C(C)(C)C] (cyclo([3Pal][dPip][NMeA][Phe(4-F)][NMeA][Phe(4-Cl)][dPip]PF[Tle])): 1000 to 2500 nM.
